Results published in ChEMBL document CHEMBL5291721, “A preclinical secondary pharmacology resource illuminates target-adverse drug reaction associations of marketed drugs” (Nat Commun, 2023).

Assays:
[1] = target: T1, Alpha-2A adrenergic receptor (Homo sapiens, UniProt P08913); format: functional, cell-based
T1 sequence (P08913 whole entry): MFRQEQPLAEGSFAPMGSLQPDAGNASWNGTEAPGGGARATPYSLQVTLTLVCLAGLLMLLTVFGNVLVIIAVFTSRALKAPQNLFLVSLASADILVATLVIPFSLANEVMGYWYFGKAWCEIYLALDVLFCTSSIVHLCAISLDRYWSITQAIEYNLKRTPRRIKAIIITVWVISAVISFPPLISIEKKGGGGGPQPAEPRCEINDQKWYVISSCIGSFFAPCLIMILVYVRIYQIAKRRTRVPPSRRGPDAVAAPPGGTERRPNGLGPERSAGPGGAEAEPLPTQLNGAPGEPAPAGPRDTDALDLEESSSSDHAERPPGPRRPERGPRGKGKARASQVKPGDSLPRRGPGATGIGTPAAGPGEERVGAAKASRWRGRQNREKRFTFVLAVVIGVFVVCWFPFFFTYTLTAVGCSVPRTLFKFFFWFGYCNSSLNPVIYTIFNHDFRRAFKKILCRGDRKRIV

B2 bradykinin receptor = target: T2, B2 bradykinin receptor (Homo sapiens, UniProt P30411)
T2 sequence (P30411 whole entry): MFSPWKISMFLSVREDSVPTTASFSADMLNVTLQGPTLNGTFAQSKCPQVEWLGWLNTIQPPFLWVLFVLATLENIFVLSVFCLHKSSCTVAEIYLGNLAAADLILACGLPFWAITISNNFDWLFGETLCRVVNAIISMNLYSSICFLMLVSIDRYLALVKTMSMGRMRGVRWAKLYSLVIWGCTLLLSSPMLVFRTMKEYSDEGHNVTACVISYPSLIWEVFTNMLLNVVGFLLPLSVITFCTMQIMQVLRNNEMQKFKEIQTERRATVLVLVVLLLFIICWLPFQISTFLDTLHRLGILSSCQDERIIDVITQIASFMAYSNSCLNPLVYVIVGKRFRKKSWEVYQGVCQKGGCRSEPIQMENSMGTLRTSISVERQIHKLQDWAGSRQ

[2] = target: T3, Muscarinic acetylcholine receptor M2 (Homo sapiens, UniProt P08172); format: functional, cell-based
T3 sequence (P08172 whole entry): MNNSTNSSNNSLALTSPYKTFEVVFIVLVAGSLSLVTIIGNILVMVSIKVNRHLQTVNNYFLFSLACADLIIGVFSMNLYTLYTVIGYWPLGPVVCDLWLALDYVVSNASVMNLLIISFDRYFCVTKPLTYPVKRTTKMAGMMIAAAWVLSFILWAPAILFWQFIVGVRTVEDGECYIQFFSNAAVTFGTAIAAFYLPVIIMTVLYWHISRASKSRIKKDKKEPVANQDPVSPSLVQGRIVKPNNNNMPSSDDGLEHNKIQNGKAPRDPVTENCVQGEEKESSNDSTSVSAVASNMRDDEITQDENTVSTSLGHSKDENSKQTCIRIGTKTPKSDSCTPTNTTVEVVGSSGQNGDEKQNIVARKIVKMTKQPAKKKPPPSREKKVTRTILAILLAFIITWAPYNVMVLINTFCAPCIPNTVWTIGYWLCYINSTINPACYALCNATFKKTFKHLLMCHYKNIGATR

[3] = target: 5-hydroxytryptamine receptor 2A (Homo sapiens, UniProt P28223); format: functional, cell-based
[4] = target: 5-hydroxytryptamine receptor 2B (Homo sapiens, UniProt P41595); format: functional, cell-based
[5] = target: T4, 5-hydroxytryptamine receptor 2C (Homo sapiens, UniProt P28335)
T4 sequence (P28335 whole entry): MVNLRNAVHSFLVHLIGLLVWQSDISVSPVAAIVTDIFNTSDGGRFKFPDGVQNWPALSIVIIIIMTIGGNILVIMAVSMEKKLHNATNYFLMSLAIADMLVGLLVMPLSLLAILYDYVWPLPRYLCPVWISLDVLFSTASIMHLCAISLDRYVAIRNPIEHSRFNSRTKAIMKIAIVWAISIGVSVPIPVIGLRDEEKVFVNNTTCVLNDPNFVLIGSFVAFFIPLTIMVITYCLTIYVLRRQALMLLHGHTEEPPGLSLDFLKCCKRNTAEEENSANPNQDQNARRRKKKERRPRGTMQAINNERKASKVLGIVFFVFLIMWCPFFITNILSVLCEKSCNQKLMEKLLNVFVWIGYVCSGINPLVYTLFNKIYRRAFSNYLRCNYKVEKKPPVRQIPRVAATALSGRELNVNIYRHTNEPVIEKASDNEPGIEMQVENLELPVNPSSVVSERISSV

Melanocortin receptor 3 = Melanocortin receptor 3 (Homo sapiens, UniProt P41968)
[6] = target: Kappa-type opioid receptor (Homo sapiens, UniProt P41145)
[7] = target: 3',5'-cyclic-AMP phosphodiesterase 4D (Homo sapiens, UniProt Q08499); format: functional
[8] = target: T5, Prostaglandin G/H synthase 1 (Rattus norvegicus, UniProt Q63921); format: functional
T5 sequence (Q63921 whole entry): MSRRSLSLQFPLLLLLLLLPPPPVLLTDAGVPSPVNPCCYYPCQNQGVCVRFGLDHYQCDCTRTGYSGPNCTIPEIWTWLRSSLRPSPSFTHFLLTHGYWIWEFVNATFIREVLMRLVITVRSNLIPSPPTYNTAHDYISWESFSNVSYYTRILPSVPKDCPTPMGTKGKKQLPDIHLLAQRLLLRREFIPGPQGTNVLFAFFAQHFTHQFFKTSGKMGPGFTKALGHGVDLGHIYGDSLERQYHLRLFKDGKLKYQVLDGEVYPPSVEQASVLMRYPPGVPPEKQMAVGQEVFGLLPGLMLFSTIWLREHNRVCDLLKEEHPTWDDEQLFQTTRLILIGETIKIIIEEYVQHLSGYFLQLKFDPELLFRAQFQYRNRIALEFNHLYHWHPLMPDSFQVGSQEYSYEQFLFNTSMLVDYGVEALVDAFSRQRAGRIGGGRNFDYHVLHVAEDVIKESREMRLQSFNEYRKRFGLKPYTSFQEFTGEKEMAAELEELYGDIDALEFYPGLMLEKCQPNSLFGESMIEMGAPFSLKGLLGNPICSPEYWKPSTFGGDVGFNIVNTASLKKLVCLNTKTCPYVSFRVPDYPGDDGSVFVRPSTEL
Further: assay procedure not described here.

Chain of Melanocortin receptor 3 (P41968 whole entry): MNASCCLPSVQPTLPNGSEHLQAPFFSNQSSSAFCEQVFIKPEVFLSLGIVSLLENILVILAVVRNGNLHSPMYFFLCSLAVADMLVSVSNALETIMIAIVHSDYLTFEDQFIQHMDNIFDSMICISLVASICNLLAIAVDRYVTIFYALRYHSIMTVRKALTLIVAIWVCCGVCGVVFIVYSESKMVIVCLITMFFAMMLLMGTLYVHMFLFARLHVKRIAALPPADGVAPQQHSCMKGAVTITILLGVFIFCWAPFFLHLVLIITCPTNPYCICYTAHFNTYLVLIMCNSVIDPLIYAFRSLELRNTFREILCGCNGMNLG
Chain of 3',5'-cyclic-AMP phosphodiesterase 4D (Q08499 whole entry): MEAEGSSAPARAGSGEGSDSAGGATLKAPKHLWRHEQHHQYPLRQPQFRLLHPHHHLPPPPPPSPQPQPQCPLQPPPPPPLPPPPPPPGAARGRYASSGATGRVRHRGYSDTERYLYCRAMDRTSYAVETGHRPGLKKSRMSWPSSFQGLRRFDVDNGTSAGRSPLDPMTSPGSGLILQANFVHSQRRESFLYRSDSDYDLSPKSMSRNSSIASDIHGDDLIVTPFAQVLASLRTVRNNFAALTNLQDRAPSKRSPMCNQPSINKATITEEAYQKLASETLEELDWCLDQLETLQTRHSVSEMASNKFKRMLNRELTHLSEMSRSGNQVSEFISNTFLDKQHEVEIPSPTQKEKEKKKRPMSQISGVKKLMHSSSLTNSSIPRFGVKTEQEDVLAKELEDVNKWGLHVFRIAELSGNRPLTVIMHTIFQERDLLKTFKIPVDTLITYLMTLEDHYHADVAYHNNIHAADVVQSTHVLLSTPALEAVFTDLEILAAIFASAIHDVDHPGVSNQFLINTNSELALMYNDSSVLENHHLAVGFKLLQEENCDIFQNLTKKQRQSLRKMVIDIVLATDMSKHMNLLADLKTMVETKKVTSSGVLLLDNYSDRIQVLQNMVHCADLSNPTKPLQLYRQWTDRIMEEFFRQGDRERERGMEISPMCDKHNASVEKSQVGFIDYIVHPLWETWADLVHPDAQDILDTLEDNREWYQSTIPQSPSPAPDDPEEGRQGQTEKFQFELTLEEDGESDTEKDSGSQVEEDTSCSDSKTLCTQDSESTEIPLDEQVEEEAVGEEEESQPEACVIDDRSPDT
Chain of 5-hydroxytryptamine receptor 2B (P41595 whole entry): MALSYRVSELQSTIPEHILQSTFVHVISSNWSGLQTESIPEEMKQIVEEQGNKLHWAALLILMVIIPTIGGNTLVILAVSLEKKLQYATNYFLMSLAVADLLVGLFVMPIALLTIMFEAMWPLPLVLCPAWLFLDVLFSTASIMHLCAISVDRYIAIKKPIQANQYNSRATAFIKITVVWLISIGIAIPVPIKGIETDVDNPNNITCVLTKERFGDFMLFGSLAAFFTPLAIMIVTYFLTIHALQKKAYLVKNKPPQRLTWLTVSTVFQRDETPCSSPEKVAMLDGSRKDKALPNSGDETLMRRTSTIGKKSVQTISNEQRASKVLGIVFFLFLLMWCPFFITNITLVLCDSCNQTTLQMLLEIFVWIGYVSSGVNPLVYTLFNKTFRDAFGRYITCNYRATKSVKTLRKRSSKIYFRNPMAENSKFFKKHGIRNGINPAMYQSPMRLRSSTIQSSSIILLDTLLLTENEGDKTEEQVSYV
Chain of 5-hydroxytryptamine receptor 2A (P28223 whole entry): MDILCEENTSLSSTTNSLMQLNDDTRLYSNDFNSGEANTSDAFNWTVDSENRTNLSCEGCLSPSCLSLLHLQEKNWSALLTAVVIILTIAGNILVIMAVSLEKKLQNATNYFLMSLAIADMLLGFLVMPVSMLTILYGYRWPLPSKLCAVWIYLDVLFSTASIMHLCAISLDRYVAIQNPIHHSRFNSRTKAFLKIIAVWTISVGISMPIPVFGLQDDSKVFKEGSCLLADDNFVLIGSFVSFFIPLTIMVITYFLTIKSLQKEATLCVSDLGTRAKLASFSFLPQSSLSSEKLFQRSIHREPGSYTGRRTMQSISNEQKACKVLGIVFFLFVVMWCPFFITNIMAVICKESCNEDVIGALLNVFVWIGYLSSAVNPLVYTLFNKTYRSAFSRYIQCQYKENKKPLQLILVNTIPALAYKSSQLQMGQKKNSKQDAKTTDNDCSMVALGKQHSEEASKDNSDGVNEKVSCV
Chain of Kappa-type opioid receptor (P41145 whole entry): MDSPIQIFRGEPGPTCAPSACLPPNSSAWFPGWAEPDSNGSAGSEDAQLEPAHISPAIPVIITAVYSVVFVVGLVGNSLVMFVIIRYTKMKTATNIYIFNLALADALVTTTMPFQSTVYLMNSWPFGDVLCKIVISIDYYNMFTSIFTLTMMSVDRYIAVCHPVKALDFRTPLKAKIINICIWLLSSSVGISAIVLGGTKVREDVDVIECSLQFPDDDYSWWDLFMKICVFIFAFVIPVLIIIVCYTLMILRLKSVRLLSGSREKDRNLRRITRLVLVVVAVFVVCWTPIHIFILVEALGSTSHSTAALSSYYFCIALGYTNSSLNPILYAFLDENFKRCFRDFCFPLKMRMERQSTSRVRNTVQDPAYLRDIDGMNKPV

| SMILES | AC50 [1] [µM] | AC50 (B2 bradykinin receptor) [µM] | AC50 [2] [µM] | AC50 [3] [µM] | AC50 [4] [µM] | AC50 [5] [µM] | AC50 (Melanocortin receptor 3) [µM] | AC50 [6] [µM] | AC50 [7] [µM] | AC50 [8] [µM] |
| --- | --- | --- | --- | --- | --- | --- | --- | --- | --- | --- |
| CO/N=C(\C(=O)N[C@@H]1C(=O)N2C(C(=O)[O-])=C(C[n+]3ccc(N)n3CCO)CS[C@H]12)c1csc(N)n1 [CEFOSELIS] | > 30 | > 30 | > 30 | > 30 | > 30 | > 30 | > 30 | > 30 | > 30 | > 30 |
| O=C(O)c1ccc2nc(-c3cc(Cl)cc(Cl)c3)oc2c1 | > 30 | > 30 | > 30 | > 30 | > 30 | > 30 | > 30 | > 30 | 10.3 | > 30 |
| C=C(c1ccccc1OCc1cccc(Cl)c1)n1ccnc1 [CROCONAZOLE] | > 10 | > 30 | > 10 | > 30 | 8.5 | 18 | > 30 | 1.03 | 7.1 | 21.1 |

Other lines, results leading:

| AC50 [1] [µM] | AC50 (B2 bradykinin receptor) [µM] | AC50 [2] [µM] | AC50 [3] [µM] | AC50 [4] [µM] | AC50 [5] [µM] | AC50 (Melanocortin receptor 3) [µM] | AC50 [6] [µM] | AC50 [7] [µM] | AC50 [8] [µM] | SMILES |
| --- | --- | --- | --- | --- | --- | --- | --- | --- | --- | --- |
| > 30 | > 30 | > 30 | > 30 | > 30 | > 30 | > 30 | 8.95 | > 30 | 0.66 | CCC(NC(C)C)C(O)c1ccc(O)c(O)c1 (stereo not given) [ISOETHARINE] |
| > 30 | > 30 | > 30 | > 30 | > 30 | > 30 | > 30 | > 30 | > 30 | > 30 | CC1=C(/C=C/C(C)=C/C=C/C(C)=C/C(=O)Oc2c(C)c(C)c3c(c2C)CCC(C)(CCCC(C)CCCC(C)CCCC(C)C)O3)C(C)(C)CCC1 (stereo not given) [TRETINOIN TOCOFERIL] |
| > 30 | > 30 | > 30 | > 30 | > 30 | > 30 | > 30 | 20 | 17 | > 30 | CN1CCCN=C1/C=C/c1cccc(O)c1 [OXANTEL] |
